The results in this text go back to patent US20020119993A1, “Potentiator for neurotrophin effect” (SANKO COMPANY, LIMITED, priority 1999, published 2002).

One assay concerns PC12 cells. The assay is described as follows: Induction of differentiation (neurite outgrowth) in PC12 cells with neurotrophin. The assay is classed as cell-based, rat. The following applies: for Ratio of PC12 cells having an outgrowth (%): 72 hours; for Differentiation-induction of PC12 cells by neurotrophin alone (in words): neurotrophin used alone. From the text: Induction of Differentiation in […] strain (PC12 cell) derived from Rat Adrenal Medulla
PC12 cells were suspended in a DEM medium containing 10% equine serum and 5% bovine serum and the resulting suspension was charged in a collagen-coated 24-well plate. Twenty-four hours later, the medium was exchanged. A neurotrophin [human recombinant NGF or NT-3 (Austral Biologicals)] and 1-amino-3,8-dichloro-6(5H)-phenanthridinone (Compound No. 166) synthesized in accordance with the process described in Journal of Heterocyclic Chemistry, Z, 597 (1970), were added and cultured for 72 hours. After the medium was discarded, the cells were fixed with 2% glutaraldehyde and were observed under a microscope. The ratio of the cells having a longer outgrowth than the cell body was determined.

Assay [1] deals with sensory neurons in the dorsal root ganglion of the rat spinal cord. The assay is described as follows: Survival of sensory neurons of the dorsal root ganglion of the rat spinal cord. The assay is classed as cell-based. The conditions noted are these: for Effect on NGF or NT-3 prolonged survival of sensory neurons in the dorsal root ganglion (in words): with NGF or NT-3. The protocol: Effects on Survival of Ganglion Sensory Neurons in Dorsal Spinal Root Ganglion of the Rat Spinal Cord
The dorsal root ganglion of the spinal cord was isolated from fetuses of the SD rat (Nippon SLC) on 17 days definite pregnancy under a stereoscopic microscope. The ganglion was then treated with 1 mg/ml of collagenase, 2 mg/ml of trypsin and 2 mg/ml of DNase I, followed by dispersion in an MEM medium containing 10% bovine fetal serum. Immediately after the sensory neuron suspension was charged in a 12-well plate (Becton Dickinson Labware) which was coated in advance with laminin and poly-D-lysine, a neurotrophin (NGF or NT-3) and 1-amino-3,8-dichloro-6(5H)-phenanthridinone (Compound No. 166) or 6(5H)-phenanthridinone (Compound A) were added. When half of the medium was exchanged on the next day, cytosine arabinoside was added to the culture medium at a final concentration of 10 μM, in order to cause cell death other than to neurons. A neurotrophin and the test compound were added to the medium at their original concentrations. After culturing for a further two days, the neurons were photographed under a microscope and the number of viable neurons was counted.

Assay [2] deals with neurotrophin receptor Trk. The assay is described as follows: Neurotrophin receptor Trk activation (phosphotyrosine) in hippocampal and strial tissue slices of matured rat. The following applies: for Amount of neurotrophin receptor Trk activated in matured rat cerebral tissues: relative to the amount (100) activated by NGF in the strial tissue. The assay is classed as cell-based. The protocol:
Enhancing Action of Neurotrophin Response in Hippocampal and Strial Tissue Slices of Matured Rat
Male SD rats (Nippon SLC) were decapitated under anesthesia and the hippocampus and the corpus striatum were isolated. The tissue was cut into 0.2×0.2 mm slices with a “McIlwain Tissue Chopper” (Mickle Laboratory Engineering Company), and were suspended in a DMEM medium. A neurotrophin (NGF or NT-3) and 1-amino-3,8-dichloro-6(5H)-phenanthridinone were added to the suspension and the mixture was kept at 37° C. for 20 minutes. After washing the tissue with ice-cooled tris buffer physiological saline (TBS), the mixture was stirred vigorously and dissolved in TBS containing 1% Triton-X100, 10 μg/ml of leupeptin, 10 µg/ml of aprotinin, 1 mM of phenylmethylsulfonyl fluoride and 1 mM of sodium vanadate. After centrifugation at 14000 g for 15 minutes, the amount of protein in the supernatant was determined with Protein Assay Kit (Bio-Rad Laboratories, Ltd.). Anti-Trk antibody C-14 (Santa Cruz Biotechnology Inc) which specifically binds to Trk, a neurotrophin receptor, was added to the extract which was adjusted to contain an equal amount of protein and mixed at 4° C. for 16 hours. Thus the Trk receptor in the tissue extract formed an immunocomplex with the antibody. The immunocomplex was precipitated with protein A Sepharose beads (Amersham Pharmacia Biotech). The Trk protein collected was separated from other proteins by sodium dodecyl sulfate-polyacrylamide gel electrophoresis and then transferred to a nitrocellulose membrane by Western blot assay. The membrane was reacted with Antibody 4G10 (Upstate Biotechnology Inc) which recognizes phosphotyrosine and the amount of phosphotyrosine of the Trk protein fixed on the membrane was visualized on a film by an enhanced chemiluminescence kit (Amersham Pharmacia Biotech). The film was photographed by a digital camera and the density of the band was determined by digital image analyzing software (Eastman Kodak Company).

The mark [3] stands for this setting: Table 4, NT-3 100 ng/ml + compound 1 μM.
Where [4] appears, read: Table 4, neurotrophin-free, compound 1 μM.

“NGF: human recombinant NGF (nerve growth factor), a neurotrophin (Austral Biologicals)”: the “Ratio of PC12 cells having an outgrowth (%)” value (shortened to “Ratio … (%)”) with PC12 cells (neurotrophin alone 5 ng/ml, compound-free) is 8 ± 0.9%; with PC12 cells (neurotrophin alone 20 ng/ml, compound-free) it was 27 ± 2.8%; with PC12 cells (neurotrophin alone 50 ng/ml, compound-free), 57 ± 3.6%. In addition, in the assay with PC12 cells, the “Differentiation-induction of PC12 cells by neurotrophin alone (in words)” value is given as “induced differentiation of PC12 cells”. In addition, in assay [1] (Table 3, neurotrophin alone 1 ng/ml, compound-free), the “Number of viable sensory neurons in the dorsal root ganglion of the rat spinal cord (per mm^2)” value (“Number of viable sensory neurons … (per mm^2)” below) was 44 ± 5.5 per mm^2.

On to “NT-3: neurotrophin-3, a neurotrophin (Austral Biologicals)”, for which the “Amount of neurotrophin receptor Trk activated in matured rat cerebral tissues” value in assay [2] (Corpus striatum, NT-3 100 ng/ml alone) is 12; in assay [2] (Hippocampus, NT-3 100 ng/ml alone) it was 27. Also, the “Ratio … (%)” value with PC12 cells (neurotrophin alone 100 ng/ml, compound-free) is 2 ± 0.6%. The “Differentiation-induction of PC12 cells by neurotrophin alone (in words)” value with PC12 cells was “did not cause any sufficient differentiation-induction by itself”. Also, the “Number of viable sensory neurons … (per mm^2)” value in assay [1] (Table 3, neurotrophin alone 100 ng/ml, compound-free) stood at 19 ± 5.0 per mm^2; in assay [1] (Table 4, neurotrophin alone 100 ng/ml, compound-free) it was 33 ± 4.9 per mm^2.

For the compound `O=c1[nH]c2ccccc2c2ccccc12` [Compound A, 6(5H)-phenanthridinone, reference compound], the “Number of viable sensory neurons … (per mm^2)” value is reported as 37 ± 3.6 per mm^2 in assay [1] (setting [3]) and 6 ± 0.8 per mm^2 in assay [1] (setting [4]). The “Effect on NGF or NT-3 prolonged survival of sensory neurons in the dorsal root ganglion (in words)” value in assay [1] is recorded as “had no effects”.

`Nc1cc(Cl)cc2[nH]c(=O)c3cc(Cl)ccc3c12` [Compound No. 166, 1-amino-3,8-dichloro-6(5H)-phenanthridinone]: the “Amount of neurotrophin receptor Trk activated in matured rat cerebral tissues” value is given as 68 in assay [2] (Corpus striatum, NT-3 100 ng/ml + compound 30 μM) and 58 in assay [2] (Hippocampus, NT-3 100 ng/ml + compound 30 μM). Moreover, in assay [2] (matured rat cerebral tissue slices, Table 5), the “Neurotrophin enhancing action in the adult central nervous system (in words)” value was “has a neurotrophin enhancing action in the adult central nervous system”. Moreover, the “Ratio … (%)” value with PC12 cells (NGF 5 ng/ml + compound 3 μM) amounted to 12 ± 1.3%; with PC12 cells (NGF 5 ng/ml + compound 30 μM), 29 ± 2.6%; in the assay with PC12 cells (NGF 20 ng/ml + compound 3 μM), 51 ± 6.5%; in the assay on PC12 cells (NGF 20 ng/ml + compound 30 μM), 72 ± 2.0%; in the assay with PC12 cells (NGF 50 ng/ml + compound 3 μM) it was 79 ± 3.0%; in the assay with PC12 cells (NGF 50 ng/ml + compound 30 μM), 88 ± 0.7%. The “Ratio … (%)” value came to 62 ± 0.2% in the assay with PC12 cells (NT-3 100 ng/ml + compound 3 μM) and 73 ± 3.6% in the assay with PC12 cells (NT-3 100 ng/ml + compound 30 μM). Besides, the “Effect on NGF-induced differentiation and neurite outgrowth in PC12 cells (in words)” value with PC12 cells (applied with NGF) is “potentiated the NGF-induced differentiation and neurite outgrowth in PC12 cells”. For the same compound, in the assay with PC12 cells (combined application with NT-3), the “Effect on differentiation-induction of PC12 cells (in words)” value is recorded as “markedly potentiated the differentiation-induction of PC12 cells”. The “Number of viable sensory neurons … (per mm^2)” value in assay [1] (Table 3, NGF 1 ng/ml + compound 3 μM) came to 71 ± 1.7 per mm^2; in assay [1] (Table 3, NT-3 100 ng/ml + compound 3 μM), 168 ± 21.1 per mm^2; in assay [1] (Table 3, neurotrophin-free, compound 3 μM) it was 24 ± 1.6 per mm^2; in assay [1] (setting [3]), 133 ± 13.1 per mm^2; in assay [1] (setting [4]), 11 ± 4.0 per mm^2. Also, the “Effect on NGF or NT-3 prolonged survival of sensory neurons in the dorsal root ganglion (in words)” value in assay [1] was “markedly potentiated the effects of NGF or NT-3”.
